Columns and labels:
ShHTL7 = ShHTL7 (Striga hermonthica, UniProt A0A0M3PNA2); parameters: method as in PMID 30021834; details: microscale thermophoresis measurements; cited from earlier work
ShHTL7S95C = experiment: Hydrolysis reaction analysis with ShHTL7 S95C mutant; assay type: biochemical, Striga hermonthica; details: Supplementary Fig. 24a
Procedure: (§1) Compounds 4a, (R)- and (S)-4a, 4g-i, and rac-GR24 were dissolved in DMSO and prepared as stock solution ([…]) just before use. A 200 μL of the reaction solution consisting of PBS buffer (pH 7.3), 10 μM samples, and 10 μg recombinant ShHTL7 or its mutants was incubated at 30 °C for 30 min; with the reaction solution (200 μL) containing PBS buffer (pH 7.3) and 10 μM samples as the blank control[40],[52]. Subsequently, the reaction was terminated by adding 200 μL of methanol, and then the reaction mixture was shaken for 10 s and centrifuged at 5310 × g for 60 s. The supernatant was filtered and the remaining amount of samples was analyzed by HPLC. The relative percentages of hydrolysis were obtained by using the amount of compounds in blank control as reference.
Supplementary Fig. 24. a, Relative percentage of hydrolysis of compound 4g by ShHTL7S95A, ShHTL7S95C, and ShHTL7. b, LC-MS analysis of the full-length His-tagged ShHTL7 in native condition. c, LC-MS analysis of the full-length His-tagged ShHTL7S95A in native condition, the mass of 34699 Da (reduction of […] compared with that of ShHTL7) is the peak of ShHTL7S95A. d, LC-MS analysis of full-length His-tagged ShHTL7S95C in native condition, the mass increment of 18 Da […]

ShHTL7H246A = experiment: Hydrolysis reaction analysis with ShHTL7 H246A mutant; assay type: biochemical, Striga hermonthica; details: Supplementary Fig. 20a
Procedure: as §1
Supplementary Fig. 20. Effect of key amino acid residues on the hydrolysis of ShHTL7 and binding affinity. a, Relative percentage of hydrolysis of compound (S)-4a by ShHTL7S95A, ShHTL7H246A, and ShHTL7. The error bar indicates SD (n = 3 biologically independent experiments). b, Competitive mutants of ShHTL7 inhibitory activity in YLG assay. Data are the means ± SD (n = 3 biologically independent experiments).
(1 picture or pasted object on this page, not shown here)

Sequence of ShHTL7 (A0A0M3PNA2 entry or part of it): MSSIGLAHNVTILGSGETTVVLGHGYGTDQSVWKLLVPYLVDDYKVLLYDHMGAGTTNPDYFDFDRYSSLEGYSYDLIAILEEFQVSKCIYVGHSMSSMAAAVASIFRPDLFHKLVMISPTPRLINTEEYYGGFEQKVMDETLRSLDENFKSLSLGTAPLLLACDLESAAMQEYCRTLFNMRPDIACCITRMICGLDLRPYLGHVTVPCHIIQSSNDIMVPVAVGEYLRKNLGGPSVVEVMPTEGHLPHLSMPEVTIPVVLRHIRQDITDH

For CC1=C[C@H](O/C=C2/C(=O)O[C@@H]3c4ccccc4C[C@H]23)OC1=O (racemic) [rac-GR24, reference compound], the Kd (ShHTL7) is given as 920 ± 10 nM.
With CC1=CC(OC(=O)N2CCN(C(=O)COc3ccc(Br)cc3C)CC2)CC1=O (stereo not drawn) [4g] the “relative percentage of hydrolysis by ShHTL7S95C, source data average” value (ShHTL7S95C) was 4.848%.
For CC1=C[C@H](OC(=O)N2CCN(C(=O)COc3ccc(Br)cc3C)CC2)OC1=O [(S)-4a], the “relative percentage of hydrolysis by ShHTL7H246A, source data average” value (ShHTL7H246A) was 0.5315%.
